Experimental findings from US20230393140A1, “BINDING ASSAYS INVOLVING A PLURALITY OF SYNTHETIC COMPOUNDS, TARGETS, AND COUNTER TARGETS” (SRI International, priority 2020, published 2023) are described below.

Broadly, the Kd is the equilibrium constant for the complex coming apart.

One series deals with T1, cRaf/K-Ras (G12V) PPI (Homo sapiens, UniProt P01116, G12V).
T1 construct: b-Kras G12V (GppNHp) (aa 2-169); biotin (b-
The experiment in a line: K-Ras-cRaf HTRF-based PPI profiling.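 For blank corrected HTRF: background is the signal of wells with all components except cRaf.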 It is filed as biochemical. The conditions noted are these: for HillSlope: curve fit of % binding, K-Ras G12V 30 nM, GST-cRaf 10 nM; for blank corrected HTRF: raw data, compounds without fluorescein. The method in brief:
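K-Ras(G12V) pre-incubated 30 min at room temperature with compound in 20 mM HEPES pH 7.4, 150 mM NaCl, 5 mM MgCl2, 1 mM DTT, 0.005% NP40, 1% DMSO, then cRaf added. HTRF read via anti-GST-Tb cryptate/streptavidin-XL665. % binding is relative to DMSO controls; curves fitted only if activity at top concentration fell below 65%.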
For orientation: Time-resolved FRET reads energy transfer from a long-lived donor to a nearby acceptor.

Another series relates to biotinylated GST. The experiment in a line: Interference check with biotinylated GST and detection mix. The source says:
Table 20 below provides an interference check on the synthetic compounds using biotinylated GST, which was used with the detection mix to check for compound effect on fluorescence.

Another series addresses T2, K-Ras (Homo sapiens, UniProt P01116, G12V).
T2 construct: purchased Cytoskeleton Inc. CS-RS04
The experiment in a line: MST binding affinity of resynthesized NNP hits to K-Ras. The method in brief: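 K-Ras G12V was GTP-loaded (EDTA exchange, 750 μM GTP, 2 h at 30° C, then MgCl2) and labeled with maleimide-647 dye. MST was run at room temperature in 20 mM HEPES pH 7.4, 150 mM NaCl, 10 mM MgCl2, 0.05% Tween-20, 1 mM DTT. Incubations lasted 15, 30 and 45 min; triplicate data fitted for affinity.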

Another series addresses T3, K-Ras-Raf interaction (Homo sapiens, UniProt P01116, G12V).
T3 construct: purchased Cytoskeleton Inc. (K-Ras); Jena Bioscience (Raf-RBD) CS-RS04; PR-305
The experiment in a line: K-Ras/Raf inhibition assay (MST competition binding). The conditions noted are these: NNP at 1 μM pre-incubated with K-Ras 15 minutes at room temperature, then Raf titration. On the procedure:
This was tested on an MST competition binding assay (see FIG. 11A).
Loading was performed according to the following protocol: The 200 μM stock solution of the target protein was diluted to 10 μM in 20 mM HEPES pH 8.0, 150 mM NaCl, 10 mM MgCl2, 1 mM TCEP, 0.05% Tween-20 (total volume 110 μL). 10 μL were set aside for later labeling quality control. EDTA pH 8.0 (stock concentration 10 mM) was added to the protein solution to a final concentration of 80 μM. GTP (stock concentration 50 mM) was added to the protein solution to a final concentration of 750 μM. The solution was incubated at 30° C. for 2 hours (PCR tube) and then placed on ice for 2 minutes. MgCl2 was added to the protein solution to a final concentration of 100 mM. The resulting protein solution was buffer exchanged into the buffer required in the labeling kit for labeling. […] All the other target molecules (TNFα, IL-6, IL-6R and ASGPR) were used as received without any additional treatment.
Loading of K-Ras with the GTP was performed according to the protocol detailed above (Activation of K-Ras by GTP loading). After the GTP loading the resulting protein solution was buffer exchanged into 100 mM HEPES pH 6.5, 5 mM MgCl2, 50 mM NaCl, 1 mM TCEP.

Series [1] is classed as in vitro ADME. The conditions noted are these: 17 h. How it is done:
For human plasma stability, lyophilized human plasma was reconstituted in sterile water for injection, aliquoted into 200 uL aliquots and stored frozen at −80 degrees C. prior to the stability studies. For the stability studies three aliquots per NNP were thawed at room temperature. An additional set of three aliquots for a positive control peptide (Angiotensin I) were also thawed. The incubations for the plasma stability were initiated by mixing 2 uL of a 2 mM stock solution of NNP IL6R-87-8 or positive control in DMSO with the 200 uL thawed plasma aliquot. After briefly vortex-mixing, 50 uL zero-time-point samples were removed, mixed with 50 uL of water and 400 uL of acetonitrile and frozen on dry ice until all time point samples had been collected. The samples were incubated at 37 degrees C. with samples removed and water/acetonitrile added at 1 hour, 3 hours, and 17 hours. Proteins were precipitated by centrifuging the samples at 17,000 G, 4 degrees C. for 1 hour. The supernatants were removed and concentrated in a centrifugal vacuum concentrator (GeneVac Genie II) at 45 degrees C. until the volume had been reduced to around 60 uL. […]

[2] abbreviates: K-Ras, compound with fluorescein on N-term, read-out: KD[nM] in MST (with fluorescein on N-term).
Setting [3] is: read-out: KD (nM) [95% conf. int], MST, NNP1 library hit, target K-Ras, one-site binding model.
The mark [4] stands for this setting: read-out: KD of K-Ras hits by MST.

Where two headings read alike, the source gives them in different places. Marks after values point to notes of the source that are not given here. Numbered stars: 1 amine (or outer) side, 2 acyl side, 3 side chain; on linkers, the order of the positions; unused ones are H or OH. Square brackets hold non-standard residues; d marks the D form. Ends that are not written are not given here. Peptide text beside a SMILES is read from it. * marks the point of attachment. 5FAM = O=C1OC2(c3ccc(O)cc3Oc3cc(O)ccc32)c2ccc(C(=O)*)cc21; NHCH2C6H4(4-CH2CONH2) = NC(=O)Cc1ccc(CN*)cc1; X1 = O=C(Cc1ccc(CN[*:1])cc1)[*:2]

Regarding `CC(C)C[C@@H](NC(=O)[C@@H](Cc1ccc(O)cc1)NC(=O)[C@H]1CCCN1C(=O)[C@@H](CO)NC(=O)Cc1ccc(CNC(=O)CNC(=O)[C@@H](Cc2c[nH]c3ccccc23)NC(=O)[C@@H](CCCNC(=N)N)NC(=O)CNC(=O)[C@H]2CCCN2C(=O)Cc2ccc(CNC(=O)[C@H](C)NC(=O)[C@@H](CCCNC(=N)N)NC(=O)[C@H]3CCCN3C(=O)[C@H](NC(=O)[C@@H](Cc3ccc(O)cc3)NC(=O)Cc3ccc(CNC(=O)[C@H](Cc4ccccc4)NC(=O)[C@@H](CO)NC(=O)[C@@H](CCCNC(=N)N)NC(=O)[C@H]4CCCN4C(=O)CNC(=O)Cc4ccc(CNC(=O)[C@H](C)NC(=O)[C@@H](CCCNC(=N)N)NC(=O)[C@H]5CCCN5C(=O)[C@H](NC(=O)CNC(=O)Cc5ccc(CNC(=O)[C@@H](NC(=O)[C@@H](Cc6ccc(O)cc6)NC(=O)[C@@H](Cc6c[nH]cn6)NC(=O)[C@H]6CCCN6C(=O)[C@@H](Cc6c[nH]c7ccccc67)NC(=O)c6ccc7c(c6)C(=O)OC76c7ccc(O)cc7Oc7cc(O)ccc76)C(C)C)cc5)C(C)C)cc4)cc3)[C@H](C)O)cc2)cc1)C(=O)N[C@@H](C)C(=O)NCc1ccc(CC(N)=O)cc1` [KRAS-1-8] (5FAM-[dW][dP][dH][dY]V[X1]G[dV][dP][dR]A[X1]G[dP][dR][dS]F[X1][dY][dT][dP][dR]A[X1][dP]G[dR][dW]G[X1][dS][dP][dY][dL]A-{NHCH2C6H4(4-CH2CONH2)}), the HillSlope at cRaf/K-Ras (G12V) PPI is given as −0.6222. The “blank corrected HTRF” value on cRaf/K-Ras (G12V) PPI (conc. 1.00E−05) came to 7296; on cRaf/K-Ras (G12V) PPI (conc. 1.11E−06), 10835; on cRaf/K-Ras (G12V) PPI (conc. 1.37E−08) it was 15117; at cRaf/K-Ras (G12V) PPI (conc. 3.33E−06), 9028; at cRaf/K-Ras (G12V) PPI (conc. 3.70E−07), 12171; at cRaf/K-Ras (G12V) PPI (conc. 4.12E−08), 15230. Besides, the “blank corrected HTRF” value on cRaf/K-Ras (G12V) PPI (conc. 4.57E−09) is recorded as 14396; on cRaf/K-Ras (G12V) PPI (conc. 5.08E−10), 13397. Also, the “% signal compared to DMSO” value worked out at 99.94% in the series on biotinylated GST (assay conc. 0.000508053 μM); 102.4% with biotinylated GST (assay conc. 0.001524158 μM); 103% with biotinylated GST (assay conc. 0.004572474 μM); 98.33% in the series with biotinylated GST (assay conc. 0.013717421 μM); 87.69% in the series with biotinylated GST (assay conc. 0.041152263 μM); 97.53% in the series on biotinylated GST (assay conc. 0.12345679 μM). Moreover, the “% signal compared to DMSO” value with biotinylated GST (assay conc. 0.37037037 μM) was 93.95%; in the series with biotinylated GST (assay conc. 1.111111111 μM) it was 81.88%; in the series with biotinylated GST (assay conc. 3.333333333 μM) it was 68.53%; in the series on biotinylated GST (assay conc. 10 μM), 56.45* %. Besides, the Kd at K-Ras (setting [2]), at K-Ras (setting [3]) and on K-Ras (setting [4]) was 44 nM each time. In addition, the “Inhibition of K-Ras-Raf PPI” value at K-Ras-Raf interaction was “complete inhibition”.

With `CC(C)C[C@H](NC(=O)[C@@H](C)NC(=O)[C@@H](CCC(=O)O)NC(=O)[C@H](NC(=O)[C@@H](CCCCN)NC(=O)Cc1ccc(CNC(=O)[C@H](C)NC(=O)[C@@H](CCCNC(=N)N)NC(=O)[C@H]2CCCN2C(=O)[C@H](NC(=O)CNC(=O)Cc2ccc(CNC(=O)[C@H](Cc3ccccc3)NC(=O)[C@@H](CO)NC(=O)[C@@H](CCC(=O)O)NC(=O)[C@H]3CCCN3C(=O)[C@@H](CC(C)C)NC(=O)c3ccc4c(c3)C(=O)OC43c4ccc(O)cc4Oc4cc(O)ccc43)cc2)C(C)C)cc1)[C@H](C)O)C(=O)NCc1ccc(CC(=O)N[C@H](Cc2ccc(O)cc2)C(=O)N[C@@H](C(=O)N2CCC[C@@H]2C(=O)N[C@H](CCCNC(=N)N)C(=O)N[C@@H](C)C(=O)NCc2ccc(CC(=O)N3CCC[C@@H]3C(=O)NCC(=O)N[C@H](CCCNC(=N)N)C(=O)N[C@H](Cc3c[nH]c4ccccc34)C(=O)NCC(=O)NCc3ccc(CC(=O)NCC(=O)N[C@H](Cc4c[nH]c5ccccc45)C(=O)N[C@H](Cc4c[nH]cn4)C(=O)N[C@H](CCCNC(=N)N)C(=O)N[C@@H](C)C(=O)NCc4ccc(CC(N)=O)cc4)cc3)cc2)[C@H](C)O)cc1` [KRAS-1-13] (5FAM-[dL][dP][dE][dS]F[X1]G[dV][dP][dR]A[X1][dK][dT][dE][dA]L[X1][dY][dT][dP][dR]A[X1][dP]G[dR][dW]G[X1]G[dW][dH][dR]A-{NHCH2C6H4(4-CH2CONH2)}), the HillSlope at cRaf/K-Ras (G12V) PPI is given as −0.821. The “blank corrected HTRF” value on cRaf/K-Ras (G12V) PPI (conc. 1.00E−05) came to 3798; at cRaf/K-Ras (G12V) PPI (conc. 1.11E−06), 8379; at cRaf/K-Ras (G12V) PPI (conc. 1.52E−09), 13665; at cRaf/K-Ras (G12V) PPI (conc. 3.33E−06), 3957; on cRaf/K-Ras (G12V) PPI (conc. 3.70E−07) it was 9542; at cRaf/K-Ras (G12V) PPI (conc. 4.12E−08), 14025. The results for the “blank corrected HTRF” value on cRaf/K-Ras (G12V) PPI (conc. 4.57E−09) and on cRaf/K-Ras (G12V) PPI (conc. 5.08E−10) were 13413 and 5044, respectively. The “% signal compared to DMSO” value is recorded as 101.8% in the series on biotinylated GST (assay conc. 0.000508053 μM); 103.1% in the series on biotinylated GST (assay conc. 0.001524158 μM); 102.8% in the series on biotinylated GST (assay conc. 0.004572474 μM); 101.9% in the series on biotinylated GST (assay conc. 0.013717421 μM); 102.1% with biotinylated GST (assay conc. 0.041152263 μM); 100.3% with biotinylated GST (assay conc. 0.12345679 μM). In addition, the “% signal compared to DMSO” value in the series with biotinylated GST (assay conc. 0.37037037 μM) is given as 100.4%; in the series on biotinylated GST (assay conc. 1.111111111 μM) it was 94.53%; in the series on biotinylated GST (assay conc. 3.333333333 μM) it was 80.42%; in the series on biotinylated GST (assay conc. 10 μM), 62.38* %. In addition, the Kd at K-Ras (setting [2]), at K-Ras (setting [3]) and at K-Ras (setting [4]) was 30 nM each time. The “Inhibition of K-Ras-Raf PPI” value at K-Ras-Raf interaction is reported as “partial inhibition”.

With “DRVYIHPFHL [Angiotensin I, reference compound]”, in series [1], the “Stability in human plasma” value is listed as “completely degraded within four hours”.
